In paper PMC4077385, “Synthesis of the first examples of iminosugar clusters based on cyclopeptoid cores” (Beilstein Journal of Organic Chemistry, 2014):
Where two headings read alike, the source gives them in different places.

Target: T1, jack bean α-mannosidase (Canavalia ensiformis, UniProt C0HJB3)
T1 construct: purchased Sigma–Aldrich
T1 sequence (C0HJB3 1-981): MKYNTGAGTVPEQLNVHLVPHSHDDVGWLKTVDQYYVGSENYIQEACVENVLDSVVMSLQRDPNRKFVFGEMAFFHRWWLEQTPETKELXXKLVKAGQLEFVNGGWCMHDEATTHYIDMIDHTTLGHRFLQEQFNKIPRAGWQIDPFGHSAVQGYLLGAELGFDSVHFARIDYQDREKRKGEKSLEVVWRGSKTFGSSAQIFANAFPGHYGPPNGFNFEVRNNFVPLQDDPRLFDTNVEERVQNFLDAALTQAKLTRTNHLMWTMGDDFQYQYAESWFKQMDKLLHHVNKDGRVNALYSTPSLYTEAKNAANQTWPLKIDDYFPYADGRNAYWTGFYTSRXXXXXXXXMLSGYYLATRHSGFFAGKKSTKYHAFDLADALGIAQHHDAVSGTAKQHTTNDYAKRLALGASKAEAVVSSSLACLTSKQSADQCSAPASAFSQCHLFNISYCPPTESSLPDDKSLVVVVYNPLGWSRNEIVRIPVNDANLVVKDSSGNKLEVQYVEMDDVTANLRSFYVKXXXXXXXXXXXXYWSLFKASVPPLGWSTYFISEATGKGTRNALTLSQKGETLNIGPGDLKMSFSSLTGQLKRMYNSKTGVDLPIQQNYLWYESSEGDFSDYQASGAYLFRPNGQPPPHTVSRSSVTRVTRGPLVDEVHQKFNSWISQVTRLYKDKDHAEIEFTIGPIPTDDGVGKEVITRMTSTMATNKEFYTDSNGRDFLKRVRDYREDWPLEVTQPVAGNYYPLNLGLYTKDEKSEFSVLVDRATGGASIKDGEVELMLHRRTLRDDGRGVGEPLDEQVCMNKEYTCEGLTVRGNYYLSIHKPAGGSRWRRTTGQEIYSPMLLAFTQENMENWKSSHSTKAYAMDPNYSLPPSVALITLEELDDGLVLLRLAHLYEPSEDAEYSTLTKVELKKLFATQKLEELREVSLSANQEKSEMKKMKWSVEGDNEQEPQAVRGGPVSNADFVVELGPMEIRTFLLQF
Experiment: Jack bean α-mannosidase inhibition assay (Ki, Dixon method)
Format: biochemical
Details: for rp (relative inhibition potency): Ki (monovalent reference)/Ki (glycocluster), reference 11a for C6, 11b for C9 linker; for rp/n: relative inhibition potency/number of iminosugar units (valency-corrected)
Protocol: General procedure for inhibition assay
The p-nitrophenyl-α-D-mannopyranoside and α-mannosidase (EC 3.2.1.24, from jack bean, […]
The release of p-nitrophenol was measured continuously at 385 nm to determine initial velocities.[1] All kinetics were performed at 35 °C and started by substrate addition in a 1 mL assay medium (acetate buffer, 0.2 M, pH = 5) containing α-mannosidase (5 mU), substrate (varying concentration from Km/4 to Km value) in presence or absence of various concentrations of inhibitor. Ki […]
are only partially soluble in water, they were dissolved in DMSO for concentrated mother solutions and DMSO/buffer for diluted solutions with a final DMSO concentration under […]
2,5% in all vials. […]
1 Behr, J.-B.; Chevrier, C.; Defoin, A.; Tarnus, C.; Streith, J. Tetrahedron 2003, 59, 543–553.
2 Segel, I. H. Enzyme Kinetics; John Wiley & Sons, New York, 1975, p. 109–144.

[1] = α-mannosidase EC 3.2.1.24 (5 mU), substrate p-nitrophenyl-α-D-mannopyranoside Km/4 to Km, acetate buffer 0.2 M pH 5, 35 °C, p-nitrophenol release at 385 nm, DMSO under 2,5%, Dixon graphical method, determined in duplicate, read-out: Ki

Row | SMILES | Ki [1] [µM] | rp (relative inhibition potency) | rp/n | Ki [µM] | also measured
1 | O=C1CN(Cc2cn(CCCCCCN3C[C@H](O)[C@@H](O)[C@H](O)[C@H]3CO)nn2)C(=O)CN(Cc2cn(CCCCCCN3C[C@H](O)[C@@H](O)[C@H](O)[C@H]3CO)nn2)C(=O)CN(Cc2cn(CCCCCCN3C[C@H](O)[C@@H](O)[C@H](O)[C@H]3CO)nn2)C(=O)CN(Cc2cn(CCCCCCN3C[C@H](O)[C@@H](O)[C@H](O)[C@H]3CO)nn2)C(=O)CN(Cc2cn(CCCCCCN3C[C@H](O)[C@@H](O)[C@H](O)[C@H]3CO)nn2)C(=O)CN1Cc1cn(CCCCCCN2C[C@H](O)[C@@H](O)[C@H](O)[C@H]2CO)nn1 [Compound 10a] | 65 ± 24 |  |  |  | 
2 | O=C1CN(Cc2cn(CCCCCCCCCN3C[C@H](O)[C@@H](O)[C@H](O)[C@H]3CO)nn2)C(=O)CN(Cc2cn(CCCCCCCCCN3C[C@H](O)[C@@H](O)[C@H](O)[C@H]3CO)nn2)C(=O)CN(Cc2cn(CCCCCCCCCN3C[C@H](O)[C@@H](O)[C@H](O)[C@H]3CO)nn2)C(=O)CN(Cc2cn(CCCCCCCCCN3C[C@H](O)[C@@H](O)[C@H](O)[C@H]3CO)nn2)C(=O)CN(Cc2cn(CCCCCCCCCN3C[C@H](O)[C@@H](O)[C@H](O)[C@H]3CO)nn2)C(=O)CN1Cc1cn(CCCCCCCCCN2C[C@H](O)[C@@H](O)[C@H](O)[C@H]2CO)nn1 [Compound 10b] | 11 ± 1 | 17 | 2.8 |  | 
3 | O=C1CN(Cc2cn(CCCCCCCCCN3C[C@H](O)[C@@H](O)[C@H](O)[C@H]3CO)nn2)C(=O)CN(Cc2cn(CCCCCCCCCN3C[C@H](O)[C@@H](O)[C@H](O)[C@H]3CO)nn2)C(=O)CN(Cc2cn(CCCCCCCCCN3C[C@H](O)[C@@H](O)[C@H](O)[C@H]3CO)nn2)C(=O)CN(Cc2cn(CCCCCCCCCN3C[C@H](O)[C@@H](O)[C@H](O)[C@H]3CO)nn2)C(=O)CN(Cc2cn(CCCCCCCCCN3C[C@H](O)[C@@H](O)[C@H](O)[C@H]3CO)nn2)C(=O)CN(Cc2cn(CCCCCCCCCN3C[C@H](O)[C@@H](O)[C@H](O)[C@H]3CO)nn2)C(=O)CN(Cc2cn(CCCCCCCCCN3C[C@H](O)[C@@H](O)[C@H](O)[C@H]3CO)nn2)C(=O)CN1Cc1cn(CCCCCCCCCN2C[C@H](O)[C@@H](O)[C@H](O)[C@H]2CO)nn1 [Compound 10d] |  |  |  | 8 ± 3 | 
4 | O=C1CN(Cc2cn(CCCCCCN3C[C@H](O)[C@@H](O)[C@H](O)[C@H]3CO)nn2)C(=O)CN(Cc2cn(CCCCCCN3C[C@H](O)[C@@H](O)[C@H](O)[C@H]3CO)nn2)C(=O)CN(Cc2cn(CCCCCCN3C[C@H](O)[C@@H](O)[C@H](O)[C@H]3CO)nn2)C(=O)CN(Cc2cn(CCCCCCN3C[C@H](O)[C@@H](O)[C@H](O)[C@H]3CO)nn2)C(=O)CN(Cc2cn(CCCCCCN3C[C@H](O)[C@@H](O)[C@H](O)[C@H]3CO)nn2)C(=O)CN(Cc2cn(CCCCCCN3C[C@H](O)[C@@H](O)[C@H](O)[C@H]3CO)nn2)C(=O)CN(Cc2cn(CCCCCCN3C[C@H](O)[C@@H](O)[C@H](O)[C@H]3CO)nn2)C(=O)CN1Cc1cn(CCCCCCN2C[C@H](O)[C@@H](O)[C@H](O)[C@H]2CO)nn1 [Compound 10c] |  |  |  | 21 ± 2 | 
5 | O=C1CN(Cc2cn(CCCCCCN3C[C@H](O)[C@@H](O)[C@H](O)[C@H]3CO)nn2)C(=O)CN(Cc2cn(CCCCCCN3C[C@H](O)[C@@H](O)[C@H](O)[C@H]3CO)nn2)C(=O)CN(Cc2cn(CCCCCCN3C[C@H](O)[C@@H](O)[C@H](O)[C@H]3CO)nn2)C(=O)CN(Cc2cn(CCCCCCN3C[C@H](O)[C@@H](O)[C@H](O)[C@H]3CO)nn2)C(=O)CN(Cc2cn(CCCCCCN3C[C@H](O)[C@@H](O)[C@H](O)[C@H]3CO)nn2)C(=O)CN(Cc2cn(CCCCCCN3C[C@H](O)[C@@H](O)[C@H](O)[C@H]3CO)nn2)C(=O)CN(Cc2cn(CCCCCCN3C[C@H](O)[C@@H](O)[C@H](O)[C@H]3CO)nn2)C(=O)CN(Cc2cn(CCCCCCN3C[C@H](O)[C@@H](O)[C@H](O)[C@H]3CO)nn2)C(=O)CN(Cc2cn(CCCCCCN3C[C@H](O)[C@@H](O)[C@H](O)[C@H]3CO)nn2)C(=O)CN1Cc1cn(CCCCCCN2C[C@H](O)[C@@H](O)[C@H](O)[C@H]2CO)nn1 [Compound 10e] |  | 21 | 2.1 |  | Ki (as E1 but single determination of Ki without duplicate): 15 ± 10 µM
6 | O=C1CN(Cc2cn(CCCCCCCCCN3C[C@H](O)[C@@H](O)[C@H](O)[C@H]3CO)nn2)C(=O)CN(Cc2cn(CCCCCCCCCN3C[C@H](O)[C@@H](O)[C@H](O)[C@H]3CO)nn2)C(=O)CN(Cc2cn(CCCCCCCCCN3C[C@H](O)[C@@H](O)[C@H](O)[C@H]3CO)nn2)C(=O)CN(Cc2cn(CCCCCCCCCN3C[C@H](O)[C@@H](O)[C@H](O)[C@H]3CO)nn2)C(=O)CN(Cc2cn(CCCCCCCCCN3C[C@H](O)[C@@H](O)[C@H](O)[C@H]3CO)nn2)C(=O)CN(Cc2cn(CCCCCCCCCN3C[C@H](O)[C@@H](O)[C@H](O)[C@H]3CO)nn2)C(=O)CN(Cc2cn(CCCCCCCCCN3C[C@H](O)[C@@H](O)[C@H](O)[C@H]3CO)nn2)C(=O)CN(Cc2cn(CCCCCCCCCN3C[C@H](O)[C@@H](O)[C@H](O)[C@H]3CO)nn2)C(=O)CN(Cc2cn(CCCCCCCCCN3C[C@H](O)[C@@H](O)[C@H](O)[C@H]3CO)nn2)C(=O)CN1Cc1cn(CCCCCCCCCN2C[C@H](O)[C@@H](O)[C@H](O)[C@H]2CO)nn1 [Compound 10f] |  |  |  | 5 ± 1 | 
